In patent US11952584B2, “Functional peptides having antimicrobial activity against phytopathogenic microorganisms” (TOYOTA JIDOSHA KABUSHIKI KAISHA, priority 2019, dated 2024):
“And” between values parts separate entries of the source, which are not always exact repeats. Identical values can stand only once. Like-named read-outs stand apart in the source and are kept apart here.

What was measured:
Assay type in all cases: cell-based
[1] = system: Colletotrichum destructivum; conditions: 25° C., 1 day or 2 days
Fusarium oxysporum = system: Fusarium oxysporum
[2] = system: Colletotrichum orbiculare; conditions: 25° C., 1 day or 2 days
Pyricularia oryzae = conditions: 25° C., 1 day or 2 days
Botrytis cinerea = conditions: 25° C., 1 day or 2 days

Substance | Plate antimicrobial activity test Colletotrichum destructivum (level) ([1]; peptide 1 μM) | Plate antimicrobial activity test Colletotrichum destructivum (level) ([1]; peptide 10 μM) | Plate antimicrobial activity test Colletotrichum destructivum (level) ([1]; peptide 100 μM) | Plate antimicrobial activity test Fusarium oxysporum (level) (Fusarium oxysporum) | Plate antimicrobial activity test Collectotrichum orbiculare (level) ([2]; peptide 1 μM) | Plate antimicrobial activity test Collectotrichum orbiculare (level) ([2]; peptide 10 μM) | Plate antimicrobial activity test Collectotrichum orbiculare (level) ([2]; peptide 100 μM) | Plate antimicrobial activity test Pyricularia oryzae (level) (Pyricularia oryzae; peptide 1 μM) | Plate antimicrobial activity test Pyricularia oryzae (level) (Pyricularia oryzae; peptide 10 μM) | Plate antimicrobial activity test Pyricularia oryzae (level) (Pyricularia oryzae; peptide 100 μM) | Plate antimicrobial activity test Botrytis cinerea (level) (Botrytis cinerea; peptide 1 μM) | Plate antimicrobial activity test Botrytis cinerea (level) (Botrytis cinerea; peptide 10 μM) | Plate antimicrobial activity test Botrytis cinerea (level) (Botrytis cinerea; peptide 100 μM)
PAFSERTR (listed as Solanum lycopersicum) [TsORF18-2-8aa-5] | 0 | 0 | 0 | 0 | 0 | 0 | 0 | 0 | 0 | 0 | 0 | 0 | 0
YYGFPAFS (listed as Solanum lycopersicum) [TsORF18-2-8aa-1] | 0 | 0 | 0 | 0 | 0 | 0 | 0 | 0 | 0 | 0 | 0 | 0 | 0
RIWKG (listed as Solanum lycopersicum) [TsORF18-2-5aa-16] | 0 | 0 | 0 | 0 | 0 | 0 | 0 | 0 | 0 | 0 | 0 | 0 | 0
YGFPA (listed as Solanum lycopersicum) [TsORF18-2-5aa-2] | 0 | 0 | 0 | 0 | 0 | 0 | 0 | 0 | 0 | 0 | 0 | 0 | 0
RIWKGKTS (listed as Solanum lycopersicum) [TsORF18-2-8aa-16] | 0 | 0 | 0 | 1 and 0 | 0 | 0 | 1 | 0 | 0 | 0 | 0 | 0 | 2
AFSERTRK (listed as Solanum lycopersicum) [TsORF18-2-8aa-6] | 0 | 0 | 0 | 0 | 0 | 0 | 0 | 0 | 0 | 0 | 0 | 0 | 0
FPAFS (listed as Solanum lycopersicum) [TsORF18-2-5aa-4] | 0 | 0 | 0 | 0 | 0 | 0 | 0 | 0 | 0 | 0 | 0 | 0 | 0
AFSER (listed as Solanum lycopersicum) [TsORF18-2-5aa-6] | 0 | 0 | 0 | 0 | 0 | 0 | 0 | 0 | 0 | 0 | 0 | 0 | 0
RTRKF (listed as Solanum lycopersicum) [TsORF18-2-5aa-10] | 0 | 0 | 0 | 0 | 0 | 0 | 0 | 0 | 0 | 0 | 0 | 0 | 1
SERTR (listed as Solanum lycopersicum) [TsORF18-2-5aa-8] | 0 | 0 | 0 | 0 | 0 | 0 | 0 | 0 | 0 | 0 | 0 | 0 | 0
SERTRKFW (listed as Solanum lycopersicum) [TsORF18-2-8aa-8] | 0 | 0 | 0 | 0 | 0 | 0 | 0 | 0 | 0 | 0 | 0 | 0 | 0
FSERT (listed as Solanum lycopersicum) [TsORF18-2-5aa-7] | 0 | 0 | 0 | 0 | 0 | 0 | 0 | 0 | 0 | 0 | 0 | 0 | 0
FPAFSERT (listed as Solanum lycopersicum) [TsORF18-2-8aa-4] | 0 | 0 | 0 | 0 | 0 | 0 | 0 | 0 | 0 | 0 | 0 | 0 | 0
